According to patent US20230203023A1, “SALT AND CRYSTAL FORMS OF GLP-1R AGONISTS AND USES THEREOF” (QILU REGOR THERAPEUTICS INC., priority 2020, published 2023):
Where a name gives a salt, the structure may show the parent alone. Marks after values point to notes of the source that are not given here.

Columns and labels:
[1] = Solution stability evaluation in SGF (pH 1.8) and pH 8.0 buffer at RT; type: physicochemical
Method: Weigh 100 mg of sodium chloride and 50 mg of Triton X-100 into a 50-mL volumetric flask. Add appropriate volume of purified water and sonicate until all solids are completely dissolved. Add about 68 μL of 12 M HCl and sufficient purified water closely to the target volume and adjust to pH 1.8. Dilute to volume with purified water, mix well and check the pH with a pH meter.
Add sufficient purified water closely to the target volume and adjust to pH 8.0. Dilute to volume with purified water, mix well and check the pH with a pH meter. […]
Solution stability was evaluated for 1:1 Compound II Citrate Salt (Form A) and 1:1 Compound II Tris Salt (Form B) in SGF (pH 1.8) and pH 8.0 buffer at RT. Clear solutions were prepared at two concentrations (0.01 mg/mL, 0.05 mg/mL) and then placed at RT for 6 hours, 1/5 days or 6 hours, 1/3/7 days. […] The HPLC purity and pH value were tested and the results were summarized from Table 7-3-1 to Table 7-3-4.

[2] = Hygroscopicity, DVS test; type: physicochemical; conditions: for Hygroscopicity: according to Chinese Pharmacopeia 2015
Method: DVS was measured via a SMS (Surface Measurement Systems) DVS Intrinsic. The relative humidity at 25° C. were calibrated against deliquescence point of LiCl, Mg(NO3)2 and KCl.
To investigate the solid form stability as a function of humidity, DVS isotherm plot of 1:1 Compound I Tris Salt (Form A) was collected between 0% RH and 95% RH at 25° C. […] Considering the 1:1 Compound I Tris Salt (Form A) is a hydrate and may dehydrate under low humidity, DVS was also tested at 20 and 30° C. to further confirm the suitable storage condition and avoid dehydration. […] Combing the VH-XRPD and DVS results: the condition of 20-30° C. and relative humidity ≥40% RH is suitable for the storage of 1:1 Compound I Tris Salt (Form A).
To investigate the solid form stability as a function of humidity, DVS isotherm plots of 1:1 Compound II Citrate Salt (Form A) and 1:1 Compound II Tris Salt (Form B) were collected at 25° C. between 0% RH and 95% RH. […] The water uptake increased by 0.97% from 10% to 80% RH and a platform was observed.

[3] = 0.01 mg/mL, pH 1.8 (SGF), Initial
[4] = 0.01 mg/mL, pH 1.8 (SGF), RT, 6 hours
[5] = 0.01 mg/mL, pH 1.8 (SGF), RT, 1 day
[6] = 0.01 mg/mL, pH 1.8 (SGF), RT, 5 days
[7] = 0.01 mg/mL, pH 8.0 (50 mM phosphate), Initial
[8] = 0.01 mg/mL, pH 8.0 (50 mM phosphate), RT, 6 hours
[9] = 0.01 mg/mL, pH 8.0 (50 mM phosphate), RT, 1 day
[10] = 0.01 mg/mL, pH 8.0 (50 mM phosphate), RT, 5 days
[11] = 6 hours, 0.01 mg/mL, pH 1.8 (SGF), RT
[12] = 6 hours, 0.01 mg/mL, pH 8.0 (50 mM phosphate), RT
[13] = 6 hours, 0.05 mg/mL, pH 1.8 (SGF), RT
[14] = 6 hours, 0.05 mg/mL, pH 8.0 (50 mM phosphate), RT
[15] = 1 day, 0.01 mg/mL, pH 1.8 (SGF), RT
[16] = 1 day, 0.01 mg/mL, pH 8.0 (50 mM phosphate), RT
[17] = 1 day, 0.05 mg/mL, pH 1.8 (SGF), RT
[18] = 1 day, 0.05 mg/mL, pH 8.0 (50 mM phosphate), RT
[19] = 3 days, 0.01 mg/mL, pH 1.8 (SGF), RT
[20] = 3 days, 0.01 mg/mL, pH 8.0 (50 mM phosphate), RT
[21] = 3 days, 0.05 mg/mL, pH 1.8 (SGF), RT
[22] = 3 days, 0.05 mg/mL, pH 8.0 (50 mM phosphate), RT
[23] = 7 days, 0.01 mg/mL, pH 1.8 (SGF), RT
[24] = 7 days, 0.01 mg/mL, pH 8.0 (50 mM phosphate), RT
[25] = 7 days, 0.05 mg/mL, pH 1.8 (SGF), RT
[26] = 7 days, 0.05 mg/mL, pH 8.0 (50 mM phosphate), RT
[27] = Initial, 0.01 mg/mL, pH 1.8 (SGF), RT
[28] = Initial, 0.01 mg/mL, pH 8.0 (50 mM phosphate), RT
[29] = Initial, 0.05 mg/mL, pH 1.8 (SGF), RT
[30] = Initial, 0.05 mg/mL, pH 8.0 (50 mM phosphate), RT

Compound: O=C(O)c1ccc2nc(CN3CC=C(c4cccc(OCc5ccc(Cl)cc5F)c4)CC3)n(C[C@@H]3CCO3)c2c1 [Tris salt Form A, (S)-2-((4-(3-((4-chloro-2-fluorobenzyl)-oxy)phenyl)-3,6-dihydropyridin-1(2H)-yl)methyl)-1-(oxetan-2-ylmethyl)-1H-benzo[d]-imidazole-6-carboxylic acid]
- Purity (% area) [1, 3]: 100.00 % area
- pH [1, 3]: 1.8
- Purity (% area) [1, 4]: 100.00 % area
- Purity vs. Initial (%) [1, 4]: 100.0%
- pH [1, 4]: 1.8
- Purity (% area) [1, 5]: 100.00 % area
- Purity vs. Initial (%) [1, 5]: 100.0%
- pH [1, 5]: 1.8
- Purity (% area) [1, 6]: 97.40 % area
- Purity vs. Initial (%) [1, 6]: 97.4%
- pH [1, 6]: 1.8
- Purity (% area) [1, 7]: 97.70 % area
- pH [1, 7]: 8.1
- Purity (% area) [1, 8]: 96.92 % area
- Purity vs. Initial (%) [1, 8]: 99.2%
- pH [1, 8]: 8.0
- Purity (% area) [1, 9]: 96.07 % area
- Purity vs. Initial (%) [1, 9]: 98.3%
- pH [1, 9]: 8.0
- Purity (% area) [1, 10]: 94.34 % area
- Purity vs. Initial (%) [1, 10]: 96.6%
- pH [1, 10]: 8.0
- Stability of the pH 1.8 solution, in words ([1]; SGF pH 1.8, RT, after 1 day): No significant degradation
- Stability of the pH 8.0 solution, in words ([1]; pH 8.0 buffer, RT): decreased slightly
- Form change after DVS test ([2]; 20° C.): No
- Water uptake (80% RH) ([2]; 20° C.): 2.24%
- Hygroscopicity ([2]; 20° C.): Hygroscopic
- Form change after DVS test ([2]; 25° C.): No
- Water uptake (80% RH) ([2]; 25° C.): 2.77%
- Hygroscopicity ([2]; 25° C.): Hygroscopic
- Form change after DVS test ([2]; 25° C., listed as 1:1 Compound I Tris Salt (Form A)): No form change
- Form change after DVS test ([2]; 30° C.): No
- Water uptake (80% RH) ([2]; 30° C.): 2.99%
- Hygroscopicity ([2]; 30° C.): Hygroscopic

Compound: N#Cc1ccc(COc2cccc(C3=CCN(Cc4nc5ccc(C(=O)O)cc5n4C[C@@H]4CCO4)CC3)n2)c(F)c1 [Tris salt Form B, (S)-2-((6-((4-cyano-2-fluorobenzyl)oxy)-3′,6′-dihydro-[2,4′-bipyridin]-1′(2′H)-yl)methyl)-1-(oxetan-2-ylmethyl)-1H-benzo[d]imidazole-6-carboxylic acid]
- Purity (% area) [1, 11]: 94.92 % area
- Purity vs. Initial (%) [1, 11]: 99.7%
- pH [1, 11]: 1.8
- Purity (% area) [1, 12]: 98.97 % area
- Purity vs. Initial (%) [1, 12]: 99.9%
- pH [1, 12]: 8.0
- Purity (% area) [1, 13]: 97.53 % area
- Purity vs. Initial (%) [1, 13]: 99.3%
- pH [1, 13]: 1.8
- Purity (% area) [1, 14]: 99.28 % area
- Purity vs. Initial (%) [1, 14]: 100.0%
- pH [1, 14]: 8.0
- Purity (% area) [1, 15]: 94.11 % area
- Purity vs. Initial (%) [1, 15]: 98.8%
- pH [1, 15]: 1.8
- Purity (% area) [1, 16]: 98.38 % area
- Purity vs. Initial (%) [1, 16]: 99.3%
- pH [1, 16]: 8.0
- Purity (% area) [1, 17]: 96.40 % area
- Purity vs. Initial (%) [1, 17]: 98.1%
- pH [1, 17]: 1.8
- Purity (% area) [1, 18]: 98.86 % area
- Purity vs. Initial (%) [1, 18]: 99.6%
- pH [1, 18]: 8.0
- Purity (% area) [1, 19]: 91.81 % area
- Purity vs. Initial (%) [1, 19]: 96.4%
- pH [1, 19]: 1.8
- Purity (% area) [1, 20]: 98.26 % area
- Purity vs. Initial (%) [1, 20]: 99.2%
- pH [1, 20]: 8.0
- Purity (% area) [1, 21]: 93.38 % area
- Purity vs. Initial (%) [1, 21]: 95.0%
- pH [1, 21]: 1.8
- Purity (% area) [1, 22]: 98.98 % area
- Purity vs. Initial (%) [1, 22]: 99.7%
- pH [1, 22]: 8.0
- Purity (% area) [1, 23]: 87.14 % area
- Purity vs. Initial (%) [1, 23]: 91.5%
- pH [1, 23]: 1.8
- Purity (% area) [1, 24]: 97.31 % area
- Purity vs. Initial (%) [1, 24]: 98.3%
- pH [1, 24]: 8.0
- Purity (% area) [1, 25]: 87.15* % area
- Purity vs. Initial (%) [1, 25]: 88.7%
- pH [1, 25]: 1.8
- Purity (% area) [1, 26]: 98.75 % area
- Purity vs. Initial (%) [1, 26]: 99.5%
- pH [1, 26]: 8.0
- Purity (% area) [1, 27]: 95.25 % area
- pH [1, 27]: 1.8
- Purity (% area) [1, 28]: 99.04 % area
- pH [1, 28]: 8.0
- Purity (% area) [1, 29]: 98.26 % area
- pH [1, 29]: 1.8
- Purity (% area) [1, 30]: 99.27 % area
- pH [1, 30]: 8.0
- Form change after DVS test ([2]; 25° C.): No
- Hygroscopicity ([2]; 25° C.): Slightly hygroscopic
- Water uptake increase between 0% and 10% RH ([2]; 25° C., cycle 2 sorption curve): 2.47%
- Water uptake from 10% RH to 80% RH ([2]; 25° C.): 0.97%*
- Water uptake from 10% RH to 80% RH ([2]; 25° C., listed as 1:1 Compound II Tris Salt (Form B)): 0.97%
